Here are results for 1 compound from article PMC8984176, “Tuftsin: A Natural Molecule Against SARS-CoV-2 Infection” (Frontiers in Molecular Biosciences, 2022).

Peptide text beside a SMILES is read from it.

For series [1] the following is noted: in vitro and in vivo; ref Amoscato et al., 1983; Fridkin and Najjar, 1989; Siemion and Kluczyk, 1999; cited from earlier work. The text has this: Along with ACE2, neuropilin 1 (NRP1) is another important host factor for SARS-CoV-2 infection ([Daly et al., 2020]). It has been reported that NRP1 facilitates the entry of SARS-CoV-2 into cells in the presence of ACE2 ([Cantuti-Castelvetri et al., 2020]). […] Tuftsin, a natural phagocytosis-stimulating peptide, was found by [Najjar and Nishioka (1970)]. Tuftsin is released from the Fc fragment of IgG by enzyme cleavage of an endocarboxy-peptidase in the spleen and a leukokin ...

Another series addresses recombinant human NRP1 (Homo sapiens, UniProt O14786). The experiment in a line: SPR binding to immobilized NRP1. Conditions: SPR Biacore T200, CM5 chip, amine coupling, 25°C, 30 µl/min, 1×PBS, 0.05% Tween 20, 5% dimethyl sulfoxide, pH 7.4; steady state affinity model; read-out: K D value. The protocol:
(§1) Each target was immobilized onto flow cells in a CM5 sensor chip (GE Healthcare) via the amine-coupling method. Briefly, ACE2 and NRP1 were diluted in 10 mM pH 4.5 acetate to 20 μg/ml. Then, the protein solutions were injected individually on the carboxyl-modified sensor surface to form amine bonds. Both ACE2 and NRP1 immobilized levels were approximately 10,000 RU. Binding analyses were carried out at 25°C and a flow rate of 30 µl/min. Tuftsin diluted in running buffer (1×PBS, 0.05% Tween 20 and 5% dimethyl sulfoxide, pH 7.4) was run over each target at gradient concentrations. An empty flow cell without any immobilized protein was used as a deducted reference. The binding curves were analysed using the steady state affinity model supplied with Biacore Evaluation Software (GE Healthcare).
(§2) The interactions of tuftsin with ACE2 and NRP1 were further evaluated by real-time biomolecular interaction analysis with SPR. The steady state affinity of the binding reaction were determined by injecting different concentrations of tuftsin over recombinant human ACE2 immobilized on one half of the chip surface, and over recombinant human NRP1 immobilized on another half of the chip surface. […] The K D fitting curve of tuftsin with NRP1 is gradually stable when the concentrations of tuftsin increased gradually, conforming to the characteristic of specific binding (Figure 3B).

The next series has as its target T1, recombinant human ACE2 (Homo sapiens, UniProt Q9BYF1).
T1 construct: purchased Novoprotein, Beijing, China
The series can be described thus: SPR binding to immobilized ACE2. Conditions: SPR Biacore T200, CM5 chip, amine coupling, 25°C, 30 µl/min, 1×PBS, 0.05% Tween 20, 5% dimethyl sulfoxide, pH 7.4; steady state affinity model; read-out: equilibrium dissociation constant (K D). The protocol:
as §1, §2
(SPR reads the build-up and loss of mass on a sensor chip optically.)

T1 sequence (Q9BYF1 18-805): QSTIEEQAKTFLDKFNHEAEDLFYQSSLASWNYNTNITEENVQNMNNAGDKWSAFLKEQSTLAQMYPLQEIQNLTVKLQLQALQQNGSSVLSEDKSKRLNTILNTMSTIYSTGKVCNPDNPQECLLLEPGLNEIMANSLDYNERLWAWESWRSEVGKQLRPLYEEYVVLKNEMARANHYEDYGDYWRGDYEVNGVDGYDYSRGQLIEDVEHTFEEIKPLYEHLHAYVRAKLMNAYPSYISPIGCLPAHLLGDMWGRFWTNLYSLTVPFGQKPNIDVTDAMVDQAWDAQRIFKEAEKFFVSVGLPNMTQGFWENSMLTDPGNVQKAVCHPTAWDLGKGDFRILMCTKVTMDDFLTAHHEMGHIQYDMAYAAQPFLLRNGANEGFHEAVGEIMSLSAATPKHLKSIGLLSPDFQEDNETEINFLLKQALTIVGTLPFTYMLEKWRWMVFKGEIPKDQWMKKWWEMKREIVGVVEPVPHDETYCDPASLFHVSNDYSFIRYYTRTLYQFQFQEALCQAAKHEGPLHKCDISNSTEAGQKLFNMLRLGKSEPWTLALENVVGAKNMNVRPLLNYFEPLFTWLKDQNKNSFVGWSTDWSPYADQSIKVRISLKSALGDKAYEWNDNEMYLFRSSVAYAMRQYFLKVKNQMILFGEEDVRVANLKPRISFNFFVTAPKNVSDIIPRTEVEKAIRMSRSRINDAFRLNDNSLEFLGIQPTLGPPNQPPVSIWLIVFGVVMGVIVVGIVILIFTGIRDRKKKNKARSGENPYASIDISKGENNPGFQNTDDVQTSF
recombinant human NRP1, sequence (O14786 22-923): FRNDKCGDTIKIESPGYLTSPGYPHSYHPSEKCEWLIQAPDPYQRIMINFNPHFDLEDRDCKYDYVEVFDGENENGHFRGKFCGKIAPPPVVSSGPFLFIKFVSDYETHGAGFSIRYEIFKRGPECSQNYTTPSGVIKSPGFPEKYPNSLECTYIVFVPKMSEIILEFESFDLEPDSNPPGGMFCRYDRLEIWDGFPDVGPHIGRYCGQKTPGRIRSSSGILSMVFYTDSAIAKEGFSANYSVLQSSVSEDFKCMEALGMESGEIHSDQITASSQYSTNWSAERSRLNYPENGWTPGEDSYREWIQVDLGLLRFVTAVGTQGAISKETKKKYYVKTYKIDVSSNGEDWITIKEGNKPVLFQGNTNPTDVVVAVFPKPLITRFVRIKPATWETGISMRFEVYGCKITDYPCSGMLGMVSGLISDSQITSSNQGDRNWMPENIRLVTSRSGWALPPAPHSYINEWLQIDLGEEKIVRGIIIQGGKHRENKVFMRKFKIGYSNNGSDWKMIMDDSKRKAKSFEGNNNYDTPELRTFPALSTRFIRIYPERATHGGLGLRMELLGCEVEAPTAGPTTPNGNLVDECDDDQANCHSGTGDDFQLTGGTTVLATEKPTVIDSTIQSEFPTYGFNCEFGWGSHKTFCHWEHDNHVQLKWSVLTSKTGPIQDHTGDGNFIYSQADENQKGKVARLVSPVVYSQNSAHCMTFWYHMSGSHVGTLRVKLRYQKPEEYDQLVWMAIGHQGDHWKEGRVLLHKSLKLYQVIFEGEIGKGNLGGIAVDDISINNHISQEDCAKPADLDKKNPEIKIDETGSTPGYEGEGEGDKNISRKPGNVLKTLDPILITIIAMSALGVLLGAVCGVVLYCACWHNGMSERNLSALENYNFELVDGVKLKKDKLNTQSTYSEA

Regarding `C[C@@H](O)[C@H](N)C(=O)N[C@@H](CCCCN)C(=O)N1CCC[C@H]1C(=O)N[C@@H](CCCNC(=N)N)C(=O)O` [tuftsin, L-Threonyl-L-Lysyl-L-Prolyl-L-Arginine] (H-TKPR-OH), the toxicity entry in series [1] is recorded as “low toxicity”. Besides, the figures for the Kd at recombinant human NRP1 and at recombinant human ACE2 were 10.7 µM and 460 µM, respectively.
